Results: PMC9150102 (Journal of Medicinal Chemistry, 2022)
pIC50: −log10 of the molar value.

Experiments:
[1] = molecular target: T1, SERCA2a (Rattus norvegicus, UniProt P11507); assay: SERCA2a ATPase activity in cardiac SR homogenates from healthy rats; format: biochemical
T1 construct: tissues from healthy and STZ rats were homogenized; from tissue; host or cells: Sprague Dawley rat left ventricle homogenates (healthy or STZ-diabetic)
Procedure: Measurements were performed in cardiac SR microsomes (guinea pig) and in whole tissue homogenates (rat). Cardiac preparations included SERCA2a and PLN. To test for PLN involvement in the effect of compounds, SERCA1 activity was measured in PLN-free microsomes (from guinea pig skeletal muscle) before and after reconstitution with the synthetic PLN1–32 inhibitory fragment at a ratio of 300:1 for PLN/SERCA. […] Either an increase in Vmax (rat) or a decrease in KdCa (increased Ca^2+ affinity) (guinea pig) stands for enhancement of SERCA function. […]
Left ventricles (LV) were dissected from rat and guinea -pig of healthy and failing preparations and frozen until use. Tissues were homogenized, subjected to centrifugation to obtain SR -enriched microsomes and sarcomeric proteins were extracted, as previously described 4. […]
In the case of rat hearts, cardiac homogenates were used to have sufficient material to replicate the experiments within a single animal. Hearts were excised from rats eight weeks after STZ injection. LV tissues from healthy and STZ rats were homogenized (1 g in 4 ml buffer) in a medium containing 300 mM sucrose, 50 mM K-phosphate, 10 mM NaF, 0.3 mM PMSF, 0.5 mM DTT, pH 7, and centrifuged at 35,000 g for 30 min. The final pellet was resuspended in the same buffer.
SERCA2a ATPase activity was measured as the rate of 32P-ATP release at multiple Ca2+ concentrations (100-2000 nM) in the absence and presence of tested compounds, as previously described5. Increasing concentrations of each compound were pre-incubated with 2 μg of cardiac preparations for 5 min at 4° C in 80 μl of a solution containing 100 mM KCl, 5 mM MgCl2, 1 μM A23187, 20 mM Tris, pH 7.5. Then, 20 μl of 5 mM Tris-ATP containing 50 nCi of 32P-ATP (3-10 Ci/mmol, Perkin Elmer) were added. The ATP hydrolysis was continued for 15 min at 37°C and the reaction was stopped by acidification with 100 μl of 20% ice-cold perchloric acid. 32P was separated by centrifugation with activated charcoal (Norit A, Serva) and the radioactivity was measured. SERCA2a-dependent ATPase activity was identified as the portion of total hydrolytic activity inhibited by cyclopiazonic acid (CPA, 10 µM). Technical replicates were used to ensure the reliability of single values. […]

[2] = molecular target: T2, Na^+/K^+ ATPase-alpha1 isoform purified from dog kidneys (Canis lupus familiaris, UniProt P50997); assay: Na+/K+ ATPase activity inhibition, purified dog kidney enzyme (32P-ATP hydrolysis); format: biochemical
T2 construct: excised from 1–3-year-old male beagle dogs; from tissue; host or cells: dog (beagle) kidney outer medulla, Jørgensen purification
Procedure: Compounds were tested in a concentration range from 10^–9 to 10^–4 M on a purified renal Na^+/K^+ ATPase preparation with a specific activity of 14 μmol/min/mg protein.
Figure 2 Na^+/K^+ ATPase activity inhibition in a dog purified enzyme preparation. All compounds were tested in a concentration range from 10^–9 to 10^–4 M in comparison to ouabain.
The inhibitory effect of compounds was tested at multiple concentrations on Na^+/K^+ ATPase-alpha1 isoform purified from dog kidneys. […]
Renal Na+/K+ ATPase purification and activity
Purification of renal Na+/K+ ATPase was performed according to the method of Jørgensen2. Kidneys were excised from 1–3-year-old male beagle dogs, obtained from the General Pharmacology Department of Sigma-tau, Pomezia, Italy, under pentobarbital anesthesia. Kidneys were sliced and the outer medulla was dissected, pooled and suspended (1g in 10 ml) in a sucrose-histidine solution, containing 250 mM sucrose, 30 mM histidine and 5 mM EDTA, pH 7.2 and homogenized. The homogenate was centrifuged at 6,000 g for 15 min, the supernatant was decanted and centrifuged at 48,000 g for 30 min. The pellet was suspended in the sucrose-histidine buffer and incubated for 20 min with a sodium-dodecyl-sulphate (SDS) solution, dissolved in a gradient buffer, containing 25 mM imidazole and 1 mM EDTA, pH 7.5. The sample was layered on the top of a sucrose discontinuous gradient (10, 15 and 29.4%) and centrifuged at 60,000 g for 115 min. The final pellet was suspended in the gradient buffer.
Na+/K+ ATPase activity was assayed by measuring 32P-ATP hydrolysis, as previously described3.
Increasing concentrations of the standard ouabain, or tested compound, were incubated with 0.3 μg of purified dog kidney enzyme for 10 min at 37°C in 120 μl final volume of a medium, containing 140 mM NaCl, 3 mM MgCl2, 50 mM Hepes-Tris, 3 mM ATP, pH 7.5. Then, 10 μl of incubation solution containing 10 mM KCl and 20 nCi of 32P-ATP (3-10 Ci/mmol, Perkin Elmer) were added, the reaction continued for 15 min at 37°C and was stopped by acidification with 20% ice-cold perchloric acid.
32P was separated by centrifugation with activated Charcoal (Norit A, Serva) and the radioactivity was measured. Effects of increasing concentrations of the tested compound were compared to ouabain, as positive standard, and to vehicle (control) at 37°C. The inhibitory activity was expressed as percent of activity in control. The concentration of compound causing 50% inhibition of the Na+/K+ ATPase activity (IC50) was calculated by non-linear fitting of data points (KaleidagraphTM, Sinergy Software). […]

T1 sequence (P11507 1-997 isoform P11507-2): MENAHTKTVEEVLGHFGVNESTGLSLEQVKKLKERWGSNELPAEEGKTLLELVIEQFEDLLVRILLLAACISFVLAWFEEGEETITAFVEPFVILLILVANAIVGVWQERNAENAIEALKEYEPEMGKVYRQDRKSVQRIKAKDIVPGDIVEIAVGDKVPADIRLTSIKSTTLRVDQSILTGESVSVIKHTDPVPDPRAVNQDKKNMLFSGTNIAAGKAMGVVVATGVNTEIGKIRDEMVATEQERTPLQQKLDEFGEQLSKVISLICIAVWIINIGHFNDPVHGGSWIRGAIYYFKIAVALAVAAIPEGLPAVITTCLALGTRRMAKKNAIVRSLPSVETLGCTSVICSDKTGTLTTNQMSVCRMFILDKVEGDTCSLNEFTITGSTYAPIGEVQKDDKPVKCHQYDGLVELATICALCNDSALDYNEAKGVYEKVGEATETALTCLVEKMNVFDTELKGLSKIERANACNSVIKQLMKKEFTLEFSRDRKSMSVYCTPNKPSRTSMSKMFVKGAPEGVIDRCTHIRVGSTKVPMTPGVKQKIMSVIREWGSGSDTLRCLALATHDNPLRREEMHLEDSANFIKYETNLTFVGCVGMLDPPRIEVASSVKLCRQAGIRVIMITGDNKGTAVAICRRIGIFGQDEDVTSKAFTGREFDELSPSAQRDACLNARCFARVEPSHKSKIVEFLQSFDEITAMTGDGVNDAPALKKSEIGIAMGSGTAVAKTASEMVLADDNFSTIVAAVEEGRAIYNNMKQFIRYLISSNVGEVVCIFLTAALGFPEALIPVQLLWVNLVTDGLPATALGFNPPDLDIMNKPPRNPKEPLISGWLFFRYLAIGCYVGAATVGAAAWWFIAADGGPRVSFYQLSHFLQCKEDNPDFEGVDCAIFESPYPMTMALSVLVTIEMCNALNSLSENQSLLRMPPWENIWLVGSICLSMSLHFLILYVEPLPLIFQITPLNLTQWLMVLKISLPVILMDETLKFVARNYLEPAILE

SMILES | SERCA2a KdCa ([1]; Cpd 100 nM) [nM] | SERCA2a Vmax (µmol/min/mg) ([1]; Cpd 100 nM) | SERCA2a KdCa ([1]; Cpd 300 nM) [nM] | SERCA2a Vmax (µmol/min/mg) ([1]; Cpd 300 nM) | SERCA2a KdCa ([1]; Cpd 500 nM) [nM] | SERCA2a Vmax (µmol/min/mg) ([1]; Cpd 500 nM) | SERCA2a KdCa ([1]; Cpd 1000 nM) [nM] | SERCA2a Vmax (µmol/min/mg) ([1]; Cpd 1000 nM) | pIC50 [2]
C[C@]12CC[C@H](CCCC(=O)O)C[C@@H]1[C@@H](O)C[C@@H]1[C@@H]2CC[C@]2(C)C(=O)CC[C@@H]12 [Compound 5] | 221 ± 24 | 0,371 ± 0,021 µmol/min/mg | 221 ± 21 | 0,384 ± 0,023 µmol/min/mg | 220 ± 24 | 0,374 ± 0,031 µmol/min/mg | 219 ± 32 | 0,377 ± 0,029 µmol/min/mg | < 4.00
C[C@]12CC[C@H](CC(=O)O)C[C@@H]1[C@@H](O)C[C@@H]1[C@@H]2CC[C@]2(C)C(=O)CC[C@@H]12 [Compound 8] | 214 ± 17 | 0,344 ± 0,038 µmol/min/mg | 210 ± 13 | 0,366 ± 0,027 µmol/min/mg | 260 ± 35 | 0,313 ± 0,028 µmol/min/mg | 273 ± 32 | 0,320 ± 0,020 µmol/min/mg | < 4.00
